Experimental data reported in patent publication US8551526B2, “Preparation of drug particles using evaporation precipitation into aqueous solutions” (Board of Regents, The University of Texas System, priority 2000, dated 2013).
Values joined by “and” are separate entries in the source; they are usually repeats but may differ in a detail not shown here. Identical values can stand only once.

Key:
Assay type in all cases: physicochemical
[1] = BET surface area of danazol dry powders
Protocol: (§1) Two percent (2%) w/v danazol solution in dichloromethane was sprayed at a flow rate of 1 ml/min into 100 ml aqueous solution containing 1% w/v excipient or a excipient mixture at 1:1 w/w ratio, if two surfactants were used, to stabilize the drug particles. The temperatures of both heating jacket and water bath were 80° C. and the pressure drop was 3500-4000 psi. After 25 minutes spray, a suspension with drug to excipient ratio of 0.5 was recovered and the particle size of the danazol particles was measured with Malvern Mastersizer-S. The suspensions were centrifuged (BECKMAN, Model TJ-6, USA) at 3000 rpm for 30 mins. The supernatants were poured out and the precipitates were placed into a vacuum oven and dried at 40° C., and −30 in Hg for 3-4 hrs. The crystallinity of the dry powders was examined by x-ray diffraction (PW1720, PHILIPS). The surface area of the dry powders was measured with a high-speed surface area BET analyzer (NOVA 2000, Quantachrome Instruments, USA).

[2] = Contact angle of water on compressed dry powder tablet; details: distilled water drop on compressed tablet
Protocol: […] was filled into a 0.7 cm diameter flat faced die and compressed with a Carver Laboratory Press (Model M, Fred S. Carver Inc, WIS, USA) at 1500 kgf into a tablet. A drop of […] distilled water was placed on the surface of the tablet and contact angle was measured from the tangential angle of the water drop with help of a camera (Panasonic WV-1410, Philippines).

[3] = Particle size distribution by static light scattering (Malvern Mastersizer-S) and redispersibility; details: after centrifugation and vacuum drying
Excerpt: The organic danazol solution was fed by an HPLC pump through a 3 m long 1/16 in. o.d.×0.030 in. i.d. stainless steel coiled tube contained within a 1½″ OD×24″ long plastic water jacket (Alltech). Water was circulated through the jacket with a JULABO MP temperature controller. The organic solution was atomized through an unheated insulated adjustable restrictor (5 mm dia.×136 mm long, ISCO, USA) into hot water. Atomization was achieved by adjusting the nozzle valve manually to maintain a pressure drop to about 3500 psi. The aqueous stabilizing solution was contained in a 250 ml plastic submerged in a temperature-controlled water bath. The nozzle was submerged approximately 10 cm under the surface of the aqueous solution. […] After spraying for a required time to produce the desired drug/excipient ratio, the suspension was recovered and analyzed within 30 mins to determine the particle size by light scattering with a Malvern Mastersizer-S (Malvern Instruments Ltd., U. K.).
Two percent (2%) w/v danazol solution in dichloromethane was sprayed at a flow rate of 1 ml/min into 100 ml aqueous solution containing 1% w/v excipient or a excipient mixture at 1:1 w/w ratio, if two surfactants were used, to stabilize the drug particles. […] The surface area of the dry powders was measured with a high-speed surface area BET analyzer (NOVA 2000, Quantachrome Instruments, USA). […]

[4] = X-ray diffraction of danazol dry powders
Protocol: as §1
X-ray diffraction was used to analyze the crystallinity of the dry powders. […] The a-peak heights of danazol in different excipient systems at 2θ=15° are listed in Table N. The reduction in crystallinity was less than 20% after correction for the presence of 10% w/w excipient. It was assumed that the danazol peak height was linear in concentration for a fixed weight. […]

- Surface Area of the dry powder [1]: 0.52 m^2/g
- Contact angle of dry powder after centrifugation and drying [2]: 61.5 ° and 61.0 °
- D (v, 0.5) redispersed dry powders ([3]; cell marked (30s)): 21.07 (30s) μm
- D (v, 0.5) redispersed dry powders w/o ultrasonic ([3]; redispersed in distilled water): 29.63 μm
- Peak height of danazol x-ray diffraction at 2θ = 15° [4]: 3182 counts
SMILES: C#C[C@]1(O)CC[C@H]2[C@@H]3CCC4=Cc5oncc5C[C@]4(C)[C@H]3CC[C@@]21C [Bulk danazol, danazol]
